According to US20070207138A1, “S/O Type Pharmaceutical Preparation and Method for Producing the Same” (ASPION CO., LTD., priority 2004, published 2007):
Several values for one entry are separate records, joined by “and”; a condition that tells them apart may be missing. Equal entries are not always repeated. Entries after “also recorded” stand apart in the source; their conditions may differ.

Key:
gastric mucosa = test: Gastric mucosa stimulus test
Procedure: (§1) Gastric mucosa stimulus test for the S/O type complex suspension obtained in Production example 1 was carried out. Specifically, according to the method disclosed by Tsurumi et al. (Folia Pharmacol. Japan, 69, pp.319-334 (1973)), five male Wistar rats having an average body weight of 140 g were fasted for 18 hours in advance, and were administered so that the dose amount of DFNa was 50 mg/kg body weight by means of an intrastomach catheter for rat. After 3.5 hours, the rats were sacrificed and dissected, and the condition of the gastric mucosa was observed. Also blood collected after 3.5 hours was centrifuged to obtain a plasma sample, and DFNa concentration in the plasma was determined by HPLC.

Blood concentration test = format: in vivo; conditions: beagle dog fasted overnight, oral, DFNa 6 mg/kg body weight
[1] = Plasma DFNa concentration in the gastric mucosa stimulus test; format: in vivo, male Wistar rats; conditions: DFNa 50 mg/kg body weight by intrastomach catheter, blood after 3.5 hours
Procedure: as §1

- abnormality in gastric mucosa (gastric mucosa; rat, DFNa 50 mg/kg body weight): clear abnormality is observed
- Area under medicine concentration curve (Blood concentration test): 62800 ng·h/mL
- Maximum blood concentration (Blood concentration test): 26.4 µg/mL
- Maximum blood concentration reach time (Blood concentration test): 1 h
- half-life (Blood concentration test; serum): 58.8 min
- Plasma DFNa concentration, Average ([1]; group average, rat): 6.21 ± 2.03
- Plasma DFNa concentration ([1]; individual rat): 3.99 and 7.98 and 6.64
SMILES: O=C(O)Cc1ccccc1Nc1c(Cl)cccc1Cl [DFNa solution, diclofenac sodium]
- Condition of gastric mucosa (gastric mucosa; individual rat, DFNa 50 mg/kg body weight by intrastomach catheter, observed after 3.5 hours): Dotted bleeding; also recorded: Gastric ulcer
